Legend:
Escherichia coli [1] = assay: Antibacterial activity against Escherichia coli JM109 after overnight incubation by CLSI M7-A9 based method; assay type: functional
Escherichia coli [2] = assay: Antibacterial activity against Escherichia coli ATCC 25922 after overnight incubation by CLSI M7-A9 based method; assay type: functional
Enterococcus faecalis [3] = assay: Antibacterial activity against Enterococcus faecalis ATCC 29212 after overnight incubation by CLSI M7-A9 based method; assay type: functional
Staphylococcus aureus [4] = assay: Antibacterial activity against Staphylococcus aureus CIP 6525 after overnight incubation by CLSI M7-A9 based method; assay type: functional
Bacillus spizizenii = assay: Antibacterial activity against Bacillus subtilis ATCC 6633 incubated for 24 hrs by broth dilution method; assay type: functional
Escherichia coli [5] = assay: Antibacterial activity against Escherichia coli ATCC 25922 incubated for 24 hrs by broth dilution method; assay type: functional
Staphylococcus aureus [6] = assay: Antibacterial activity against Staphylococcus aureus ATCC 9144 incubated for 24 hrs by broth dilution method; assay type: functional
Proteus vulgaris = assay: Antibacterial activity against Proteus vulgaris ATCC […] incubated for 24 hrs by broth dilution method; assay type: functional
Salmonella enterica = assay: Antibacterial activity against Salmonella enterica MTCC 3224 incubated overnight by broth dilution technique; assay type: functional, organism-based
Pseudomonas aeruginosa [7] = assay: Antibacterial activity against Pseudomonas aeruginosa MTCC 2453 incubated overnight by broth dilution technique; assay type: functional, organism-based
Enterococcus faecalis [8] = assay: Antibacterial activity against Enterococcus faecalis MTCC 439 incubated overnight by broth dilution technique; assay type: functional, organism-based
Streptococcus pneumoniae = assay: Antibacterial activity against Streptococcus pneumoniae MTCC 655 incubated overnight by broth dilution technique; assay type: functional, organism-based
Klebsiella pneumoniae = assay: Antibacterial activity against Klebsiella pneumoniae ATCC 700603 incubated overnight by broth dilution technique; assay type: functional, organism-based
Escherichia coli [9] = assay: Antibacterial activity against Escherichia coli ATCC 25922 incubated overnight by broth dilution technique; assay type: functional, organism-based
Staphylococcus aureus [10] = assay: Antibacterial activity against Staphylococcus aureus ATCC 29737 incubated for 24 hrs; assay type: functional
Micrococcus luteus = assay: Antibacterial activity against Micrococcus Luteus ATCC 398 incubated for 24 hrs; assay type: functional
Bacillus cereus [11] = assay: Antibacterial activity against Bacillus cereus ATCC 6630 incubated for 24 hrs; assay type: functional
Escherichia coli [12] = assay: Antibacterial activity against Escherichia coli NCIM 2256 incubated for 24 hrs; assay type: functional
Pseudomonas fluorescens = assay: Antibacterial activity against Pseudomonas fluorescens NCIM 2173 incubated for 24 hrs; assay type: functional
[13] = system: Sphingomonas paucimobilis; assay: Antibacterial activity against Flavobacterium devorans ATCC 10829 incubated for 24 hrs; assay type: functional
Bacillus cereus [14] = assay: Antibacterial activity against Bacillus cereus ATCC 10876 incubated for 24 hrs by microdilution method; assay type: functional
Enterococcus faecalis [15] = assay: Antibacterial activity against Enterococcus faecalis ATCC 29212 incubated for 24 hrs by microdilution method; assay type: functional
Staphylococcus aureus [16] = assay: Antibacterial activity against Staphylococcus aureus ATCC 25923 incubated for 24 hrs by microdilution method; assay type: functional
Proteus mirabilis = assay: Antibacterial activity against Proteus mirabilis ATCC 35659 incubated for 24 hrs by microdilution method; assay type: functional
Escherichia coli [17] = assay: Antibacterial activity against Escherichia coli ATCC 25922 incubated for 24 hrs by microdilution method; assay type: functional
Pseudomonas aeruginosa [18] = assay: Antibacterial activity against Pseudomonas aeruginosa ATCC 27853 incubated for 24 hrs by microdilution method; assay type: functional
Candida albicans [19] = assay: Antifungal activity against Candida albicans ATCC 50193 incubated for 24 hrs by microdilution method; assay type: functional
Aspergillus brasiliensis [20] = assay: Antifungal activity against Aspergillus brasiliensis ATCC 16404 incubated for 24 hrs by microdilution method; assay type: functional
Aspergillus brasiliensis [21] = assay: Antifungal activity against Aspergillus brasiliensis MTCC 1344 incubated for 7 days by microdilution method; assay type: functional; details: MTCC 1344, 168 h, time 7 day
Candida albicans [22] = assay: Antifungal activity against Candida albicans MTCC 227 incubated for 2 days by microdilution method; assay type: functional; details: MTCC 227, 48 h, time 2 day
Aspergillus niger [23] = assay: Antibacterial activity against Aspergillus niger MTCC 8189 by serial dilution method; assay type: functional
Candida albicans [24] = assay: Antibacterial activity against Candida albicans MTCC 227 by serial dilution method; assay type: functional
Candida albicans [25] = assay: Antifungal activity against Candida albicans ATCC 2091 incubated for 24 hrs by broth microdilution method; assay type: functional
Aspergillus niger [26] = assay: Antibacterial activity against Aspergillus niger ATCC 9029 incubated for 24 hrs by broth microdilution method; assay type: functional

C[C@H](c1ccccc1)N(CC(N)=O)C(=O)CN(C(=O)CN(Cc1cn(CC2CCCCC2)n[n+]1C)C(=O)CN(C(=O)CN(C(=O)CNCc1cn(CC2CCCCC2)n[n+]1C)[C@H](C)c1ccccc1)[C@H](C)c1ccccc1)[C@H](C)c1ccccc1
> 1.6 µg/mL: MIC (Escherichia coli [1]) | MIC (Escherichia coli [2]) | MIC (Enterococcus faecalis [3]) | MIC (Staphylococcus aureus [4])

C[C@H](c1ccccc1)N(CC(N)=O)C(=O)CN(C(=O)CN(Cc1cn(CCN)nn1)C(=O)CN(C(=O)CN(C(=O)CN(Cc1cn(CCN)nn1)C(=O)CN(C(=O)CN(C(=O)CN(Cc1cn(CCN)nn1)C(=O)CN(C(=O)CN(C(=O)CNCc1cn(CCN)nn1)[C@H](C)c1ccccc1)[C@H](C)c1ccccc1)[C@H](C)c1ccccc1)[C@H](C)c1ccccc1)[C@H](C)c1ccccc1)[C@H](C)c1ccccc1)[C@H](C)c1ccccc1
> 1.6 µg/mL: MIC (Escherichia coli [1]) | MIC (Escherichia coli [2]) | MIC (Enterococcus faecalis [3]) | MIC (Staphylococcus aureus [4])

C[C@H](c1ccccc1)N(CC(N)=O)C(=O)CN(C(=O)CN(Cc1cn(CCN)n[n+]1C)C(=O)CN(C(=O)CN(C(=O)CN(Cc1cn(CCN)n[n+]1C)C(=O)CN(C(=O)CN(C(=O)CN(Cc1cn(CCN)n[n+]1C)C(=O)CN(C(=O)CN(C(=O)CNCc1cn(CCN)n[n+]1C)[C@H](C)c1ccccc1)[C@H](C)c1ccccc1)[C@H](C)c1ccccc1)[C@H](C)c1ccccc1)[C@H](C)c1ccccc1)[C@H](C)c1ccccc1)[C@H](C)c1ccccc1
> 1.6 µg/mL: MIC (Escherichia coli [1]) | MIC (Escherichia coli [2]) | MIC (Enterococcus faecalis [3]) | MIC (Staphylococcus aureus [4])

O=C(/C=C1\C(=O)N(Cc2cn(Cc3ccccc3)nn2)c2ccccc21)c1cc(Cl)cc(Cl)c1OCc1cn(Cc2ccccc2)nn1
1.56 µg/mL: MIC (Bacillus spizizenii) | MIC (Escherichia coli [5]) | MIC (Staphylococcus aureus [6]) | MIC (Proteus vulgaris)

C[C@H](c1ccccc1)N(CC(N)=O)C(=O)CN(C(=O)CN(Cc1cn(Cc2ccccc2)n[n+]1C)C(=O)CN(C(=O)CN(C(=O)CN(Cc1cn(Cc2ccccc2)n[n+]1C)C(=O)CN(C(=O)CN(C(=O)CNCc1cn(Cc2ccccc2)n[n+]1C)[C@H](C)c1ccccc1)[C@H](C)c1ccccc1)[C@H](C)c1ccccc1)[C@H](C)c1ccccc1)[C@H](C)c1ccccc1
> 1.6 µg/mL: MIC (Escherichia coli [1]) | MIC (Escherichia coli [2]) | MIC (Enterococcus faecalis [3]) | MIC (Staphylococcus aureus [4])

Cc1ccc(-n2cc(COc3cccc4cccnc34)nn2)cc1
113 µg/mL: IC50 (Salmonella enterica) | IC50 (Pseudomonas aeruginosa [7]) | IC50 (Enterococcus faecalis [8]) | IC50 (Streptococcus pneumoniae) | IC50 (Klebsiella pneumoniae) | IC50 (Escherichia coli [9])

C[C@H](c1ccccc1)N(CC(N)=O)C(=O)CN(C(=O)CN(Cc1cn(CCN)n[n+]1C)C(=O)CN(C(=O)CN(C(=O)CN(Cc1cn(CCN)n[n+]1C)C(=O)CN(C(=O)CN(C(=O)CNCc1cn(CCN)n[n+]1C)[C@H](C)c1ccccc1)[C@H](C)c1ccccc1)[C@H](C)c1ccccc1)[C@H](C)c1ccccc1)[C@H](C)c1ccccc1
> 1.6 µg/mL: MIC (Escherichia coli [1]) | MIC (Escherichia coli [2]) | MIC (Enterococcus faecalis [3]) | MIC (Staphylococcus aureus [4])

Oc1cccc2cccnc12 [OXYQUINOLINE]
15.6 µg/mL: IC50 (Salmonella enterica) | IC50 (Pseudomonas aeruginosa [7]) | IC50 (Enterococcus faecalis [8]) | IC50 (Streptococcus pneumoniae) | IC50 (Klebsiella pneumoniae) | IC50 (Escherichia coli [9])

c1ccc(-n2cc(COc3cccc4cccnc34)nn2)cc1
106 µg/mL: IC50 (Salmonella enterica) | IC50 (Pseudomonas aeruginosa [7]) | IC50 (Enterococcus faecalis [8]) | IC50 (Streptococcus pneumoniae) | IC50 (Klebsiella pneumoniae) | IC50 (Escherichia coli [9])

Fc1ccc(-n2cc(COc3cccc4cccnc34)nn2)cc1
106 µg/mL: IC50 (Salmonella enterica) | IC50 (Pseudomonas aeruginosa [7]) | IC50 (Enterococcus faecalis [8]) | IC50 (Streptococcus pneumoniae) | IC50 (Klebsiella pneumoniae) | IC50 (Escherichia coli [9])

C[C@H](c1ccccc1)N(CC(N)=O)C(=O)CN(C(=O)CN(Cc1cn(CCN)n[n+]1C)C(=O)CN(C(=O)CN(C(=O)CNCc1cn(CCN)n[n+]1C)[C@H](C)c1ccccc1)[C@H](C)c1ccccc1)[C@H](C)c1ccccc1
> 1.6 µg/mL: MIC (Escherichia coli [1]) | MIC (Escherichia coli [2]) | MIC (Enterococcus faecalis [3]) | MIC (Staphylococcus aureus [4])

O=C(/C=C1\C(=O)N(Cc2cn(Cc3ccccc3)nn2)c2ccc(Br)cc21)c1cc(Cl)cc(Cl)c1OCc1cn(Cc2ccccc2)nn1
1.56 µg/mL: MIC (Bacillus spizizenii) | MIC (Escherichia coli [5]) | MIC (Staphylococcus aureus [6]) | MIC (Proteus vulgaris)

O=[N+]([O-])c1ccc(-n2cc(COc3cccc4cccnc34)nn2)cc1
106 µg/mL: IC50 (Salmonella enterica) | IC50 (Pseudomonas aeruginosa [7]) | IC50 (Enterococcus faecalis [8]) | IC50 (Streptococcus pneumoniae) | IC50 (Klebsiella pneumoniae) | IC50 (Escherichia coli [9])

C[C@H](c1ccccc1)N(CC(N)=O)C(=O)CN(C(=O)CN(Cc1cn(CC2CCCCC2)n[n+]1C)C(=O)CN(C(=O)CN(C(=O)CN(Cc1cn(CC2CCCCC2)n[n+]1C)C(=O)CN(C(=O)CN(C(=O)CNCc1cn(CC2CCCCC2)n[n+]1C)[C@H](C)c1ccccc1)[C@H](C)c1ccccc1)[C@H](C)c1ccccc1)[C@H](C)c1ccccc1)[C@H](C)c1ccccc1
> 1.6 µg/mL: MIC (Escherichia coli [1]) | MIC (Escherichia coli [2]) | MIC (Enterococcus faecalis [3]) | MIC (Staphylococcus aureus [4])

C[C@H](c1ccccc1)N(CC(N)=O)C(=O)CN(C(=O)CN(Cc1cn(CC2CCCCC2)nn1)C(=O)CN(C(=O)CN(C(=O)CNCc1cn(CC2CCCCC2)nn1)[C@H](C)c1ccccc1)[C@H](C)c1ccccc1)[C@H](C)c1ccccc1
> 1.6 µg/mL: MIC (Escherichia coli [1]) | MIC (Escherichia coli [2]) | MIC (Enterococcus faecalis [3]) | MIC (Staphylococcus aureus [4])

O=C(N[C@H](CO)[C@H](O)c1ccc([N+](=O)[O-])cc1)C(Cl)Cl [CHLORAMPHENICOL]
1.56 µg/mL: MIC (Bacillus spizizenii) | MIC (Escherichia coli [5]) | MIC (Staphylococcus aureus [6]) | MIC (Proteus vulgaris)
2 µg/mL: MIC (Staphylococcus aureus [10]) | MIC (Micrococcus luteus) | MIC (Bacillus cereus [11]) | MIC (Escherichia coli [12]) | MIC (Pseudomonas fluorescens) | MIC [13]

CCCCCCCCCCCCn1nnc(-c2n[nH]c(=S)n2-c2ccccc2)c1-c1n[nH]c(=S)n1-c1ccccc1
2 µg/mL: MIC (Bacillus cereus [14]) | MIC (Enterococcus faecalis [15]) | MIC (Staphylococcus aureus [16]) | MIC (Proteus mirabilis) | MIC (Escherichia coli [17]) | MIC (Pseudomonas aeruginosa [18]) | MIC (Candida albicans [19]) | MIC (Aspergillus brasiliensis [20])

OC(Cn1cncn1)(Cn1cncn1)c1ccc(F)cc1F [FLUCONAZOLE]
0.0716 µM: MIC (Aspergillus brasiliensis [21])
8 µg/mL: MIC (Candida albicans [25]) | MIC (Aspergillus niger [26])
0.0408 µM: MIC (Candida albicans [22])
4 µg/mL: MIC (Aspergillus brasiliensis [20])
1 µg/mL: MIC (Candida albicans [19])
5.1 µM: MIC (Aspergillus niger [23]) | MIC (Candida albicans [24])

Clc1ccc(-n2cc(COc3cccc4cccnc34)nn2)cc1
106 µg/mL: IC50 (Salmonella enterica) | IC50 (Pseudomonas aeruginosa [7]) | IC50 (Enterococcus faecalis [8]) | IC50 (Streptococcus pneumoniae) | IC50 (Klebsiella pneumoniae) | IC50 (Escherichia coli [9])

CCCCCCCCCCCCn1nnc(-c2n[nH]c(=S)n2N)c1-c1n[nH]c(=S)n1N
1 µg/mL: MIC (Bacillus cereus [14]) | MIC (Enterococcus faecalis [15]) | MIC (Staphylococcus aureus [16]) | MIC (Proteus mirabilis) | MIC (Escherichia coli [17]) | MIC (Pseudomonas aeruginosa [18]) | MIC (Candida albicans [19]) | MIC (Aspergillus brasiliensis [20])

NS(=O)(=O)c1ccc(-n2cc(COc3cccc4cccnc34)nn2)cc1
106 µg/mL: IC50 (Salmonella enterica) | IC50 (Pseudomonas aeruginosa [7]) | IC50 (Enterococcus faecalis [8]) | IC50 (Streptococcus pneumoniae) | IC50 (Klebsiella pneumoniae) | IC50 (Escherichia coli [9])

GENTAMICIN
1.56 µg/mL: MIC (Bacillus spizizenii) | MIC (Escherichia coli [5]) | MIC (Staphylococcus aureus [6]) | MIC (Proteus vulgaris)

CCCCCCCCCCn1nnc(-c2n[nH]c(=S)n2-c2ccccc2)c1-c1n[nH]c(=S)n1-c1ccccc1
2 µg/mL: MIC (Bacillus cereus [14]) | MIC (Enterococcus faecalis [15]) | MIC (Staphylococcus aureus [16]) | MIC (Proteus mirabilis) | MIC (Escherichia coli [17]) | MIC (Pseudomonas aeruginosa [18]) | MIC (Candida albicans [19]) | MIC (Aspergillus brasiliensis [20])

Reference: ChEMBL document CHEMBL4699440, “Comprehensive review on the anti-bacterial activity of 1,2,3-triazole hybrids” (Eur J Med Chem, 2019)
